# Patent EP4772505A1, “COMPOUND FOR DEGRADING ANDROGEN RECEPTOR AND MEDICAL USE THEREOF” (Ubix Therapeutics, Inc., priority 2023, dated 2025)
# Biological target: T1, Androgen Receptor (AR) (Homo sapiens, UniProt P10275, T878A)
# T1 construct: endogenous in cells; host or cells: LNCaP
# T1 sequence (P10275 1-920 T878A): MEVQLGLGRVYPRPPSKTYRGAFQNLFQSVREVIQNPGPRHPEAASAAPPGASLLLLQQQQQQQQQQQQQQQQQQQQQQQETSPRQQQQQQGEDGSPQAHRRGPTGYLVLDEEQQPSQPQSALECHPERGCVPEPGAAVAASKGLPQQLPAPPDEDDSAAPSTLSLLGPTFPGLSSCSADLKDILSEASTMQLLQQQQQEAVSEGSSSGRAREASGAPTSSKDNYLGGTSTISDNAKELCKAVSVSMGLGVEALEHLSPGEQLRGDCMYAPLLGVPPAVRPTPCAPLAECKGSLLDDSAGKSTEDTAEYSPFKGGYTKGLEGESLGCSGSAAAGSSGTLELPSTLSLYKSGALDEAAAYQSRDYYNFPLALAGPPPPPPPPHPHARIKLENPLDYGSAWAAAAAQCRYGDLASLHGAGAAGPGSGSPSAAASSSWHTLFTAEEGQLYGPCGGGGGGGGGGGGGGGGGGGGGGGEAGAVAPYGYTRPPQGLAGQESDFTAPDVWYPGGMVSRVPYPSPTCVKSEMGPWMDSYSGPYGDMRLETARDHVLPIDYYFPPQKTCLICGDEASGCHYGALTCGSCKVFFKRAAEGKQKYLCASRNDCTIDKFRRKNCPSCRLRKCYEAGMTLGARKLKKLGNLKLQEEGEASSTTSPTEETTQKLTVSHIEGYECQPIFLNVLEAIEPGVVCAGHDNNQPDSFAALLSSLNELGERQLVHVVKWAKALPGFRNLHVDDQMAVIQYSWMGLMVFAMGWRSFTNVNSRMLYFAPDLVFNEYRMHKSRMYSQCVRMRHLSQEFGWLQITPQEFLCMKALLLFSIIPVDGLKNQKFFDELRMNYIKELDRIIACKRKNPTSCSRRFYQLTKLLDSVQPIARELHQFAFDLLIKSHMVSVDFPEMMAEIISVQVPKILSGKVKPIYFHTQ
# Assay: Measurement of AR protein degradation in LNCaP cells by Western blotting
# Format: cell-based
# Conditions: LNCaP, 20 h, read-out: AR degradation in LNCaP cells (%)
# Experimental: The amount of AR protein present in LNCaP or VCaP cells was measured after treating them with the synthesized compound. The amount of AR protein was measured using Western blotting. The protocol for the experiments using LNCaP or VCaP cells was as follows.
# [Culture] LNCaP cells were resuspended in RPMI1640 medium + HEPES (Hyclone, SH30255.01), 10% FBS (Hyclone, SV30207.02), and 1% Penicillin-streptomycin (Welgene, LS 202-02). 3 x 10^5 cells/mL were seeded in 12-well plates (1 mL per well) and cultured for 3 days. VCaP cells were resuspended in IMDM MEDIUM (Hyclone, SH30228.01), 20% FBS (Hyclone, SV30207.02), and 1% Penicillin-streptomycin (Welgene, LS 202-02), seeded at 9 x 10^5/mL in 1 mL per 12-well plate, and cultured for 3 days.
# [Compound Treatment] 10 µL of 100x stock (e.g., 0.1, 1, 10 µM) compound solution at the final compound treatment concentration (e.g., 0.001, 0.01, 0.1 µM) was added to each well in 1 mL media, and cells were harvested after 20 hours. For DC50 measurement, 100x stock (0.01, 0.1, 1, 10, 100, 1000 µM) compound solutions at the final compound treatment concentration (0.0001, 0.001, 0.01, 0.1, 1, 10 µM) were used.
# [Cell lysis] The cell pellet was suspended using 1% SDS lysis buffer (50 mM Tris, 1 mM EDTA, 1% SDS, pH 8.0, 0.5 mM PMSF, 1x Protease/Phosphatase inhibitor Cocktail (Cell Signaling Technology, 5872S)), and sonication (70% AMP, 10 cycles (30 sec ON/59 sec OFF)) was performed. After centrifugation at 4°C and 20,000 g for 20 minutes, the cell lysate was obtained and transferred to a new tube.
# [Protein Quantification] A BCA protein assay (SMART™ BCA Protein Assay Kit, iNtRON Biotechnology, 21071) was performed using a 96-well microplate. 5 µL of cell lysate and 5 µL of 1% SDS lysis buffer were added to each well of the 96-well plate, followed by an additional 200 µL of BCA reagent (Reagent A: Reagent B = 50:1). The wells were incubated at 37°C for 30 minutes and cooled to room temperature for 10 minutes. After shaking for 10 seconds, the absorbance was measured at a wavelength of 562 nm. The unknown protein concentration was determined using a BSA standard curve (0, 0.125, 0.25, 0.5, 1, 2 mg/mL). Western blotting samples were prepared by mixing cell lysate, 1% SDS lysis buffer, 4x NuPAGE™ LDS Sample buffer (Invitrogen, NP0008), and 10X NuPAGE™ Sample Reducing Agent (Invitrogen, NP0009) and boiling at 70°C for 10 minutes.
# [Electrophoresis] 10 µg of protein sample was loaded into each well of a NuPAGE™ 4 to 12%, Bis-Tris, 1.0 mm Mini Protein Gel, 15-well, 17-well, or 26-well (Invitrogen, NP0323BOX, NP0329BOX, or WG1403BOX) and electrophoresed for 40 minutes using NuPAGE™MES SDS Running Buffer (Invitrogen, NP0002) at 200 V (constant V).
# [Transfer] Transfer was performed for 15 or 18 minutes using the electrophoresed gel and the Trans-Blot® Turbo™ Transfer Starter System (Bio-RAD, #17001918, Mini Nitrocellulose) at 1.3 A (constant A) and 25 V (limit V). To confirm protein transfer, 15 mL of Ponceau S solution (Sigma, P7170-1L) was used to stain for 1 minute, and then washed to check the degree of transfer.
# [Blocking] The membrane for AR and GAPDH detection was blocked with 5% skim milk/0.2% TBST (Skim milk: BD, 232100/ 20X TBS: Biosesang, TR2008-100-00/ 10% Tween 20 Solution: Bio-RAD, #161-0781) for 45 minutes.
# [Antibodies and Detection] Primary AR antibody (Androgen Receptor: CST, 5153S) was mixed with 5% skim milk/0.2% TBST at a ratio of 1:1,000 and reacted at room temperature for 3 hours or at 4°C overnight. Primary GAPDH antibody (CST, 2118S) was mixed with 5% skim milk/0.2% TBST at a ratio of 1:2,000 and reacted at room temperature for 3 hours or at 4°C overnight. Afterwards, TBST (0.2% Tween 20) was used for washing three times every 5 minutes. Secondary antibody to AR antibody, Anti-rabbit IgG, HRP-linked Antibody (CST, 7074S), was mixed with 5% skim milk/0.2% TBST at a ratio of 1:5,000 and reacted at room temperature for 45 minutes. […]
smiles,measurement,value
"N#Cc1ccc(N2CCC(C(=O)Nc3ccc(OC4CCN(CC5CCN(c6ccc(NC7CCC(=O)NC7=O)cc6Cl)CC5)CC4)cn3)CC2)cc1C(F)(F)F (centres unmarked) [Example 17, N-(5-((1-((1-(2-chloro-4-((2,6-dioxopiperidin-3-yl)amino)phenyl)piperidin-4-yl)methyl)piperidin-4-yl)oxy)pyridin-2-yl)-1-(4-cyano-3-(trifluoromethyl)phenyl)piperidine-4-carboxamide]",Dmax at 0.01 µM,77%
same,Dmax at 0.1 µM,99%
